Measured values as given in patent US8044211B2 (Chroma Therapeutics Ltd., priority 2006, dated 2011).

Tests used:
THP-1 TNFα release = test: LPS-stimulation of THP-1 cells, TNF-α by ELISA; type: cell-based; conditions: Homo sapiens, THP-1; IC50 range; LPS 1 μg/ml, 6 hrs; read-out: Inhibitor activity versus THP-1 TNFα release
In short: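 THP-1 cells (4×10^4/well) rested 16 h, preincubated 2 h with inhibitor, then stimulated with 1 μg/ml E. coli LPS for 6 h at 37 °C, 5% CO2. TNF-α quantified in cell-free supernatants by sandwich ELISA.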

[1] = tested on: human whole blood TNFα release; test: LPS-stimulation of human whole blood, TNF-α by ELISA; type: cell-based; conditions: IC50 range, LPS 100 ng/ml, 6 hrs, read-out: Inhibitor activity versus human whole blood TNFα release
Protocol: Whole blood was taken by venous puncture using heparinised vacutainers (Becton Dickinson) and diluted in an equal volume of RPMI 1640 tissue culture media (Sigma). 100 μl was plated in V-bottomed 96 well tissue culture treated plates. 2 hrs after the addition of the inhibitor in 100 μl of RPMI 1640 media, the blood was stimulated with LPS (E. coli strain 005:B5, Sigma) at a final concentration of 100 ng/ml and incubated at 37° C. in 5% CO2 for 6 hrs. TNF-α levels were measured from cell-free supernatants by sandwich ELISA (R&D Systems #QTA00B)

p38 MAP Kinase a = biological target: T1, p38 MAP Kinase a (Homo sapiens, UniProt Q16539); test: p38 MAP Kinase activity, radiometric filter-binding assay (Upstate); type: biochemical; conditions: IC50 range; ATP at or close to Km; read-out: Inhibitor activity versus p38 MAPKa
T1 construct: purchased Upstate (Dundee UK)
T1 sequence (Q16539 whole entry): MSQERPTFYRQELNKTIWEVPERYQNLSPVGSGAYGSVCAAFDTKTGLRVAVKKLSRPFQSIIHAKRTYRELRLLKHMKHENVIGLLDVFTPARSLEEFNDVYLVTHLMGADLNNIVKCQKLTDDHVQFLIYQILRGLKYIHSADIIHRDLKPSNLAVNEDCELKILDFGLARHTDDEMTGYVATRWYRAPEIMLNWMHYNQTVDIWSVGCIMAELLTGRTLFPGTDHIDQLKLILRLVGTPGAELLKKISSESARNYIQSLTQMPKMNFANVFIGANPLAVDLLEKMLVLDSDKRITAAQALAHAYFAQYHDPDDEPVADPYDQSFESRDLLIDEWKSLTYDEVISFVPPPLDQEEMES
In short: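 Human p38 MAP kinase α (5-10 mU) with 0.33 mg/mL myelin basic protein, 25 mM Tris pH 7.5, 0.002 mM EGTA, 10 mM Mg acetate and [γ-33P]ATP at or near Km; 40 min at RT. Phosphoric acid stop, P30 filter binding and scintillation counting; IC50 from 9-step ⅓-log dilutions from 10 μM top concentration, duplicates.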

| SMILES | IC50 (THP-1 TNFα release) [µM] | IC50 [1] [µM] | IC50 (p38 MAP Kinase a) [µM] |
| --- | --- | --- | --- |
| CC(C)(C)OC(=O)[C@@H](NCCCOc1cc(F)c(-n2c(N)c(C(=O)c3ccc(F)cc3F)ccc2=O)c(F)c1)c1ccccc1 [Example 36, tert-Butyl(S)-(3-{4-[6-Amino-5-(2,4-difluorobenzoyl)-2-oxo-2H-pyridin-1-yl]-3,5-difluorophenoxy}propylamino)phenyl acetate] | < 0.1 | > 1 | < 0.1 |
| Nc1c(C(=O)c2ccc(F)cc2F)ccc(=O)n1-c1c(F)cc(OCCCN[C@@H](Cc2ccccc2)C(=O)OC2CCCC2)cc1F [Example 21, Cyclopentyl(S)-2-(3-{4-[6-Amino-5-(2,4-difluorobenzoyl)-2-oxo-2H-pyridin-1-yl]-3,5-difluorophenoxy}-propylamino)-3-phenyl propionate] | < 0.1 | > 1 | < 0.1 |
| CC(C)C[C@H](NCCCOc1cc(F)c(-n2c(N)c(C(=O)c3ccc(F)cc3F)ccc2=O)c(F)c1)C(=O)OC1CCCC1 [Example 22, Cyclopentyl(S)-2-(3-{4-[6-Amino-5-(2,4-difluorobenzoyl)-2-oxo-2H-pyridin-1-yl]-3,5-difluorophenoxy}propylamino)-4-methyl pentanoate] | < 0.1 | 0.1 to 1 | < 0.1 |

Results, then the compound that gave them:

| IC50 (THP-1 TNFα release) [µM] | IC50 [1] [µM] | IC50 (p38 MAP Kinase a) [µM] | SMILES |
| --- | --- | --- | --- |
| < 0.1 | 0.1 to 1 | < 0.1 | NCC[C@H](NCCCOc1cc(F)c(-n2c(N)c(C(=O)c3ccc(F)cc3F)ccc2=O)c(F)c1)C(=O)OC1CCCC1 [Example 52, Cyclopentyl(2S)-4-amino-2-[(3-{4-[6-amino-5-(2,4-difluorobenzoyl)-2-oxopyridin-1(2H)-yl]-3,5-difluorophenoxy}propyl)amino]butanoate] |
| < 0.1 | 0.1 to 1 | < 0.1 | CC(C)C[C@H](NCCCCCOc1cc(F)c(-n2c(N)c(C(=O)c3ccc(F)cc3F)ccc2=O)c(F)c1)C(=O)OC1CCCC1 [Example 53, Cyclopentyl N-(5-{4-[6-amino-5-(2,4-difluorobenzoyl)-2-oxopyridin-1(2H)-yl]-3,5-difluorophenoxy}pentyl)-L-leucinate] |
| < 0.1 | 0.1 to 1 | 0.1 to 1 | CC(C)C[C@H](NCCc1ccc(-n2c(N)c(C(=O)c3ccc(F)cc3)ccc2=O)cc1)C(=O)OC(C)(C)C [Example 58, tert-Butyl N-[2-(4-{6-amino-5-[(4-fluorophenyl)carbonyl]-2-oxopyridin-1(2H)-yl}phenyl)ethyl]-L-leucinate] |
| < 0.1 | 0.1 to 1 | < 0.1 | Nc1c(C(=O)c2ccc(F)cc2F)ccc(=O)n1-c1c(F)cc(OCCCN[C@H](C(=O)OC2CCCC2)c2ccccc2)cc1F [Example 20, Cyclopentyl(S)-(3-{4-[6-Amino-5-(2,4-difluorobenzoyl)-2-oxo-2H-pyridin-1-yl]-3,5-difluorophenoxy}propylamino)phenyl acetate] |
